Data published in US8222404B2, “[1,2,4]Thiadiazin-3-yl acetic acid compound and methods of making the acetic acid compound” (Anadys Pharmaceuticals, Inc., priority 2008, dated 2012).

Tested on: HCV Huh-luc/neo-ET replicon cells
Assay: Luciferase-Based HCV Replicon Assay (EC50 (1b))
Type: cell-based
Conditions: Hepatitis C virus, 72 hours exposure, luciferase activity
How it was run: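 Replicon cells seeded, then exposed 24 h later to a compound concentration series in triplicate for 72 h. Luciferase luminescence read; % inhibition vs no-compound control, with 100 nM BILN-2061 as background, used to derive EC50 (1b).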

CS(=O)(=O)NCc1csc2c1S(=O)(=O)N=C(C1=C(O)[C@@H]3[C@H]4CC[C@H](C4)[C@@H]3NC1=O)N2 [Example 80, N-[3-((1R,2S,7R,8S)-6-Hydroxy-4-oxo-3-aza-tricyclo[6.2.1.0^2,7]undec-5-en-5-yl)-1,1-dioxo-1,4-dihydro-1λ^6-thieno[2,3-e][1,2,4]thiadiazin-7-ylmethyl]-methanesulfonamide]
EC50: > 1000 nM

COc1ccc(CN2C(=O)C(C3=NS(=O)(=O)c4c(CNS(C)(=O)=O)csc4N3)=C(O)[C@@H]3[C@H]4CC[C@H](C4)[C@@H]32)c(OC)c1 [Example 72, N-{3-[(1R,2S,7R,8S)-3-(2,4-Dimethoxy-benzyl)-6-hydroxy-4-oxo-3-aza-tricyclo[6.2.1.0^2,7]undec-5-en-5-yl]-1,1-dioxo-1,4-dihydro-1λ^6-thieno[2,3-e][1,2,4]thiadiazin-7-ylmethyl}-methanesulfonamide]
EC50: > 1000 nM

CS(=O)(=O)NCc1csc2c1S(=O)(=O)N=C(C1=C(O)C3C4CC(C5CC54)C3N(Cc3ccc(F)cc3)C1=O)N2 (racemic) [Example 32, (rac-di-exo, di-exo)-N-{3-[3-(4-Fluoro-benzyl)-6-hydroxy-4-oxo-3-aza-tetracyclo[6.3.1.0^2,7.0^9,11]dodec-5-en-5-yl]-1,1-dioxo-1,4-dihydro-1λ^6-thieno[2,3-e][1,2,4]thiadiazin-7-ylmethyl}-methanesulfonamide]
EC50: ≤ 5 nM

CS(=O)(=O)NCc1csc2c1S(=O)(=O)N=C(C1=C(O)C3CCCCC3N(C3CCCCC3)C1=O)N2 (racemic) [Example 100, (rac-cis)-N-[3-(1-Cyclohexyl-4-hydroxy-2-oxo-1,2,4a,5,6,7,8,8a-octahydro-quinolin-3-yl)-1,1-dioxo-1,4-dihydro-1λ^6-thieno[2,3-e][1,2,4]thiadiazin-7-ylmethyl]-methanesulfonamide]
EC50: 100 to 1000 nM

CS(=O)(=O)NCc1csc2c1S(=O)(=O)N=C(C1=C(O)[C@@H]3[C@@H]4CC[C@@H](C4)[C@@H]3N(Cc3ccc(F)cc3)C1=O)N2 [Example 89, N-{3-[(1S,2S,7R,8R)-3-(4-Fluoro-benzyl)-6-hydroxy-4-oxo-3-aza-tricyclo[6.2.1.0^2,7]undec-5-en-5-yl]-1,1-dioxo-1,4-dihydro-1λ^6-thieno[2,3-e][1,2,4]thiadiazin-7-ylmethyl}-methanesulfonamide]
EC50: ≤ 5 nM

CC(C)(C)CCN1C(=O)C(C2=NS(=O)(=O)c3c(CNS(C)(=O)=O)csc3N2)=C(O)C2CCCCC21 (racemic) [Example 133, (rac-cis)-N-{3-[1-(3,3-Dimethyl-butyl)-4-hydroxy-2-oxo-1,2,4a,5,6,7,8,8a-octahydro-quinolin-3-yl]-1,1-dioxo-1,4-dihydro-1λ^6-thieno[2,3-e][1,2,4]thiadiazin-7-ylmethyl}-methanesulfonamide]
EC50: 20 to 100 nM

CS(=O)(=O)NCc1csc2c1S(=O)(=O)N=C(C1=C(O)[C@@H]3CCC[C@@H]3N(Cc3ccc(F)c(F)c3F)C1=O)N2 [Example 115, (4aR,7aS)-N-{3-[4-Hydroxy-2-oxo-1-(2,3,4-trifluoro-benzyl)-2,4a,5,6,7,7a-hexahydro-1H-[1]pyrindin-3-yl]-1,1-dioxo-1,4-dihydro-1λ^6-thieno[2,3-e][1,2,4]thiadiazin-7-ylmethyl}-methanesulfonamide]
EC50: 100 to 1000 nM

CS(=O)(=O)NCc1csc2c1S(=O)(=O)N=C(C1=C(O)C3C4CCC(C5CC54)C3N(Cc3ccc(F)cc3)C1=O)N2 (racemic) [Example 22, (rac-di-endo)-N-{3-[3-(4-Fluoro-benzyl)-6-hydroxy-4-oxo-3-aza-tetracyclo[6.3.2.0^2,7.0^9,11]tridec-5-en-5-yl]-1,1-dioxo-1,4-dihydro-1λ^6-thieno[2,3-e][1,2,4]thiadiazin-7-ylmethyl}-methanesulfonamide]
EC50: ≤ 5 nM

CS(=O)(=O)NCc1csc2c1S(=O)(=O)N=C(C1=C(O)C3CCCCC3N(Cc3ccsc3)C1=O)N2 (racemic) [Example 135, (rac-cis)-N-[3-(4-Hydroxy-2-oxo-1-thiophen-3-ylmethyl-1,2,4a,5,6,7,8,8a-octahydro-quinolin-3-yl)-1,1-dioxo-1,4-dihydro-1λ^6-thieno[2,3-e][1,2,4]thiadiazin-7-ylmethyl]-methanesulfonamide]
EC50: > 1000 nM

CS(=O)(=O)NCc1csc2c1S(=O)(=O)N=C(C1=C(O)C3CCCCC3N(Cc3ccc(F)cc3F)C1=O)N2 (racemic) [Example 118, (rac-cis)-N-{3-[1-(2,4-Difluoro-benzyl)-4-hydroxy-2-oxo-1,2,4a,5,6,7,8,8a-octahydro-quinolin-3-yl]-1,1-dioxo-1,4-dihydro-1λ^6-thieno[2,3-e][1,2,4]thiadiazin-7-ylmethyl}-methanesulfonamide]
EC50: 100 to 1000 nM

Cc1cc(CN2C(=O)C(C3=NS(=O)(=O)c4c(CNS(C)(=O)=O)csc4N3)=C(O)C3CCCCC32)ccc1F (racemic) [Example 131, (rac-cis)-N-{3-[1-(4-Fluoro-3-methyl-benzyl)-4-hydroxy-2-oxo-1,2,4a,5,6,7,8,8a-octahydro-quinolin-3-yl]-1,1-dioxo-1,4-dihydro-1λ^6-thieno[2,3-e][1,2,4]thiadiazin-7-ylmethyl}-methanesulfonamide]
EC50: 100 to 1000 nM

CS(=O)(=O)NCc1csc2c1S(=O)(=O)N=C(C1=C(O)C3C4CCC(O4)C3N(Cc3ccsc3)C1=O)N2 (racemic) [Example 61, (rac-di-exo)-N-[3-(6-Hydroxy-4-oxo-3-thiophen-3-ylmethyl-11-oxa-3-aza-tricyclo[6.2.1.0^2,7]undec-5-en-5-yl)-1,1-dioxo-1,4-dihydro-1λ^6-thieno[2,3-e][1,2,4]thiadiazin-7-ylmethyl]-methanesulfonamide]
EC50: 20 to 100 nM

CS(=O)(=O)NCc1ccc2c(c1)S(=O)(=O)N=C(C1=C(O)[C@@H]3[C@H]4CC[C@H](C4)[C@@H]3N(Cc3ccc(F)cc3)C1=O)N2 [Example 3, N-{3-[(1R,2S,7R,8S)-3-(4-Fluoro-benzyl)-6-hydroxy-4-oxo-3-aza-tricyclo[6.2.1.0^2,7]undec-5-en-5-yl]-1,1-dioxo-1,4-dihydro-1λ^6-benzo[1,2,4]thiadiazin-7-ylmethyl}-methanesulfonamide]
EC50: 100 to 1000 nM

CC(=O)NCc1csc2c1S(=O)(=O)N=C(C1=C(O)[C@@H]3[C@H]4CC[C@H](C4)[C@@H]3N(Cc3ccc(F)cc3)C1=O)N2 [Example 35, N-{3-[(1R,2S,7R,8S)-3-(4-Fluoro-benzyl)-6-hydroxy-4-oxo-3-aza-tricyclo[6.2.1.0^2,7]undec-5-en-5-yl]-1,1-dioxo-1,4-dihydro-1λ^6-thieno[2,3-e][1,2,4]thiadiazin-7-ylmethyl}-acetamide]
EC50: 5 to 20 nM

COc1cc(CN2C(=O)C(C3=NS(=O)(=O)c4c(CNS(C)(=O)=O)csc4N3)=C(O)[C@@H]3CCC[C@@H]32)ccc1F [Example 114, (4aR,7aS)-N-{3-[1-(4-Fluoro-3-methoxy-benzyl)-4-hydroxy-2-oxo-2,4a,5,6,7,7a-hexahydro-1H-[1]pyrindin-3-yl]-1,1-dioxo-1,4-dihydro-1λ^6-thieno[2,3-e][1,2,4]thiadiazin-7-ylmethyl}-methanesulfonamide]
EC50: 100 to 1000 nM

CS(=O)(=O)NCc1csc2c1S(=O)(=O)N=C(C1=C(O)[C@@H]3[C@H]4CC[C@H](C4)[C@@H]3N(Cc3ccc(F)cc3)C1=O)N2 [Example 1, (1R,2S,7R,8S)—N-{3-[3-(4-Fluoro-benzyl)-6-hydroxy-4-oxo-3-aza-tricyclo[6.2.1.0^2,7]undec-5-en-5-yl]-1,1-dioxo-1,4-dihydro-1λ^6-thieno[2,3-e][1,2,4]thiadiazin-7-ylmethyl}-methanesulfonamide]
EC50: ≤ 5 nM

Cc1cc(CN2C(=O)C(C3=NS(=O)(=O)c4c(CNS(C)(=O)=O)csc4N3)=C(O)[C@@H]3CCC[C@@H]32)ccc1F [Example 126, (4aR,7aS)-N-{3-[1-(4-Fluoro-3-methyl-benzyl)-4-hydroxy-2-oxo-2,4a,5,6,7,7a-hexahydro-1H-[1]pyrindin-3-yl]-1,1-dioxo-1,4-dihydro-1λ^6-thieno[2,3-e][1,2,4]thiadiazin-7-ylmethyl}-methanesulfonamide]
EC50: 20 to 100 nM

CC(C)(C)C1CN(Cc2ccc(F)cc2)C(=O)C(C2=NS(=O)(=O)c3c(CNS(C)(=O)=O)csc3N2)=C1O (racemic) [Example 14, rac-N-{3-[5-tert-Butyl-1-(4-fluoro-benzyl)-4-hydroxy-2-oxo-1,2,5,6-tetrahydro-pyridin-3-yl]-1,1-dioxo-1,4-dihydro-1λ^6-thieno[2,3-e][1,2,4]thiadiazin-7-ylmethyl}-methanesulfonamide]
EC50: 5 to 20 nM

CS(=O)(=O)NCc1csc2c1S(=O)(=O)N=C(C1=C(O)C3C4C=CC(C4)C3N(Cc3ccsc3)C1=O)N2 (racemic) [Example 64, (rac-di-exo)-N-[3-(6-Hydroxy-4-oxo-3-thiophen-3-ylmethyl-3-aza-tricyclo[6.2.1.0^2,7]undeca-5,9-dien-5-yl)-1,1-dioxo-1,4-dihydro-1λ^6-thieno[2,3-e][1,2,4]thiadiazin-7-ylmethyl]-methanesulfonamide]
EC50: ≤ 5 nM

CS(=O)(=O)NCc1csc2c1S(=O)(=O)N=C(C1=C(O)[C@@H]3CCC[C@@H]3N(C3CCCCC3)C1=O)N2 [Example 99, (4aR,7aS)-N-[3-(1-Cyclohexyl-4-hydroxy-2-oxo-2,4a,5,6,7,7a-hexahydro-1H-[1]pyrindin-3-yl)-1,1-dioxo-1,4-dihydro-1λ^6-thieno[2,3-e][1,2,4]thiadiazin-7-ylmethyl]-methanesulfonamide]
EC50: 100 to 1000 nM

CS(=O)(=O)NCc1csc2c1S(=O)(=O)N=C(C1=C(O)[C@@H]3CCC[C@@H]3N(Cc3ccsc3)C1=O)N2 [Example 127, (4aR,7aS)-N-[3-(4-Hydroxy-2-oxo-1-thiophen-3-ylmethyl-2,4a,5,6,7,7a-hexahydro-1H-[1]pyrindin-3-yl)-1,1-dioxo-1,4-dihydro-1λ^6-thieno[2,3-e][1,2,4]thiadiazin-7-ylmethyl]-methanesulfonamide]
EC50: 5 to 20 nM

CS(=O)(=O)NCc1csc2c1S(=O)(=O)N=C(C1=C(O)C3C4C=CC(C4)C3N(Cc3ccc(F)cc3)C1=O)N2 (racemic) [Example 47, (rac-di-exo)-N-{3-[3-(4-Fluoro-benzyl)-6-hydroxy-4-oxo-3-aza-tricyclo[6.2.1.0^2,7]undeca-5,9-dien-5-yl]-1,1-dioxo-1,4-dihydro-1λ^6-thieno[2,3-e][1,2,4]thiadiazin-7-ylmethyl}-methanesulfonamide]
EC50: ≤ 5 nM
